The values below come from article PMC8683663 (International Journal of Pharmaceutics: X, 2021).

In brackets after ≈: the same amount, converted by molar mass. Where two headings read alike, the source gives them in different places.

Series [1] concerns Caco-2 cell monolayers. Description: Lucifer yellow permeability. It counts as in vitro ADME.
Series [2] can be described thus: Zosuquidar recovery in the compartments of the Caco-2 Transwell system. The class given is in vitro ADME. To be noted: for zosuquidar left in solution / zosuquidar recovery: 120 min, mean ± SEM, n = 24; for zosuquidar left in solution: % of added.
The conditions of series [3]: for precipitation upon dilution in rSIF (visual): 1:1 in rSIF; for initial zosuquidar solubility: supernatant, 37 °C.
The subject of a further series is P-gp. Description: In vitro-in vivo correlation of P-gp inhibition. The conditions noted are these: 180 μM intestinal concentration in vivo vs. 5–10 nM in Caco-2.
For series [4] the following is noted: 20 mg/kg zosuquidar IV; ref Anderson et al., 2006; cited from earlier work.
The nature of series [5]: Pharmacokinetic dose escalation study in rats. The class given is in vivo, Sprague Dawley rats. To be noted: for Zosuquidar tmax: median [Q1;Q3]; for bioavailability: Etoposide Bioavailability.
For series [6] the following is noted: weak base; ref Drugbank, 2021; cited from earlier work.
For series [7] the following is noted: mdr1a(−/−) (P-gp) knockout rats; ref Al-Ali et al., 2018a; cited from earlier work.
For series [8] the following is noted: ref Al-Ali et al., cited from earlier work; for oral bioavailability of etoposide: 2020.
Series [9] can be described thus: Etoposide solubility in ethanol-water mixtures. It counts as physicochemical. To be noted: 22 °C, thermodynamic from solid.
A short description of series [10]: Bidirectional etoposide permeability across Caco-2 cell monolayers. It counts as in vitro ADME. To be noted: human, Caco-2, pH 7.4.
Series [11] has as its system Caco-2 cell monolayers. The description is as above. The class given is in vitro ADME. To be noted: in the presence of more than 79 nM zosuquidar; Caco-2.
The conditions of series [12]: 10 mg/kg encequidar, oral; ref Smolinski et al., 2021; cited from earlier work.
Where [13] appears, read: group B: zosuquidar 20 mg/kg oral + etoposide 5 mg/kg IV, mean ± SEM, n = 6.
The mark [14] stands for this setting: group F: zosuquidar 0.63 mg/kg oral + etoposide 20 mg/kg oral, mean ± SEM, n = 6.
Setting [15] is: group G: zosuquidar 2.0 mg/kg oral + etoposide 20 mg/kg oral, mean ± SEM, n = 6.
[16] abbreviates: group H: zosuquidar 6.3 mg/kg oral + etoposide 20 mg/kg oral, mean ± SEM, n = 6.
The mark [17] stands for this setting: group I: zosuquidar 20 mg/kg oral + etoposide 20 mg/kg oral, mean ± SEM, n = 6.
Setting [18] is: group J: zosuquidar 63 mg/kg oral + etoposide 20 mg/kg oral, mean ± SEM, n = 6.
Setting [19] is: etoposide 5 mg/kg IV, by an oral dose of 20 mg/kg zosuquidar (group B vs A).

Take lucifer yellow: in the series with Caco-2 cell monolayers [1] (100 μM lucifer yellow, Caco-2, not affected by zosuquidar), the “lucifer yellow Papp” value is on record as “below 1.1 × 10^−6 cm/s”. In addition, in the series on Caco-2 cell monolayers [1] (Caco-2 permeability experiments), the lucifer yellow recovery is listed as 82–110%.

As to `O[C@@H](COc1cccc2ncccc12)CN1CCN([C@@H]2c3ccccc3[C@@H]3[C@H](c4ccccc42)C3(F)F)CC1` [zosuquidar], the “reduction of free zosuquidar concentration in the receiver compartments” value in series [2] (apical and basolateral, after 30 min, data not shown) is reported as 60–72%. The “zosuquidar left in solution” value in series [2] (apical compartment) is 1.55 ± 0.06%; in series [2] (basolateral compartment), 7.01 ± 0.37%. In addition, the values for the zosuquidar recovery in series [2] (in the Caco-2 monolayer) and in series [2] (in the cell culture plate) were 58.7 ± 5.0% and 31.8 ± 11.3%, respectively. Also, the “precipitation upon dilution in rSIF (visual)” value in series [3] (2.0 and 6.3 mg/mL zosuquidar (groups B, I, J)) was “precipitation was observed”; in series [3] (lower zosuquidar concentrations), “remained clear”. The results for the initial zosuquidar solubility in series [3] (formulation B (2.0 mg/mL zosuquidar) diluted 1:1 in rSIF), in series [3] (formulation I (2.0 mg/mL zosuquidar) diluted 1:1 in rSIF) and in series [3] (formulation J (6.3 mg/mL zosuquidar) diluted 1:1 in rSIF) were 450 µg/mL, 520 µg/mL and 470 µg/mL, respectively. In addition, the “dose strength being in solution” value was 44% in series [3] (formulation B diluted 1:1 in rSIF), 52% in series [3] (formulation I diluted 1:1 in rSIF) and 15% in series [3] (formulation J diluted 1:1 in rSIF). Also, the “in vitro-in vivo discrepancy of zosuquidar P-gp inhibition” value in the series with P-gp is recorded as “at least four orders of magnitude”. The “tolerability of IV zosuquidar” value in series [4] was “no reported issues”. Moreover, the zosuquidar plasma concentration in [5] (2 h after a 5 mg/kg IV bolus) is 0.13 µg/mL. In addition, the “Zosuquidar AUC0-6h” value was determined as 94.2 ± 12.4 ng·h/mL in series [5] (setting [13]); 830 ± 87 ng·h/mL in series [5] (group C: zosuquidar 5.0 mg/kg IV, mean ± SEM, n = 3); 4.45 ± 0.86 ng·h/mL in [5] (setting [14]); 8.67 ± 0.77 ng·h/mL in series [5] (setting [15]); 43.6 ± 5.4 ng·h/mL in series [5] (setting [16]); 118 ± 21 ng·h/mL in series [5] (setting [17]). Also, the “Zosuquidar AUC0-6h” value in [5] (setting [18]) came out at 436 ± 91 ng·h/mL. For the same compound, the “Zosuquidar Bioavailability” value in series [5] (setting [13]) is given as 2.81±0.37%; in [5] (setting [14]), 4.21±0.81%; in series [5] (setting [15]), 2.58±0.23%; in series [5] (setting [16]) it was 4.12±0.51%; in series [5] (setting [17]), 3.52±0.62%; in series [5] (setting [18]), 4.12±0.86%. The “Zosuquidar Cmax” value in [5] (setting [13]) came out at 23.7 ± 3.6 ng/mL; in series [5] (setting [14]), 1.34 ± 0.28 ng/mL; in series [5] (setting [15]), 2.10 ± 0.27 ng/mL; in series [5] (setting [16]) it was 10.9 ± 1.2 ng/mL; in series [5] (setting [17]), 31.3 ± 3.2 ng/mL; in series [5] (setting [18]) it was 105 ± 21 ng/mL. For the same compound, the “Zosuquidar t½ terminal” value turned out to be 2.88 ± 0.167 h in series [5] (setting [13]); 2.33 ± 0.4 h in [5] (group C: zosuquidar 5.0 mg/kg IV, two-compartment model, mean ± SEM, n = 3); 1.37 ± 0.0917 h in series [5] (setting [14]); 3.62 ± 0.45 h in [5] (setting [15]); 2.68 ± 0.217 h in series [5] (setting [16]); 3.23 ± 0.383 h in series [5] (setting [17]). Also, in series [5] (setting [18]), the “Zosuquidar t½ terminal” value was determined as 3.97 ± 0.233 h. For the same compound, the Zosuquidar tmax in [5] (group B: zosuquidar 20 mg/kg oral + etoposide 5 mg/kg IV, n = 6) is 120[60;135] min; in [5] (group F: zosuquidar 0.63 mg/kg oral + etoposide 20 mg/kg oral, n = 6) it was 120[101;120] min; in [5] (group G: zosuquidar 2.0 mg/kg oral + etoposide 20 mg/kg oral, n = 6) it was 120[45;135] min; in series [5] (group H: zosuquidar 6.3 mg/kg oral + etoposide 20 mg/kg oral, n = 6), 90[45;120] min. Also, the “Zosuquidar CL” value in series [5] (group C: zosuquidar 5.0 mg/kg IV, n = 3) was determined as 102 ± 12 mL/min/kg. Further, the Oral zosuquidar bioavailability in series [5] (range over the oral zosuquidar doses, Sprague Dawley rats) is recorded as 2.6–4.2%. The “predicted pKa” value in series [6] is recorded as 7.6.

Broadly, the AUC(0-t) is exposure summed from dosing to a finite time, without extrapolation to infinity. One may read the bioavailability as dose-corrected exposure relative to a reference, in per cent. For orientation: solubility means the dissolved amount per volume that the medium holds. For `COc1cc([C@@H]2c3cc4c(cc3[C@@H](O[C@@H]3O[C@@H]5CO[C@@H](C)O[C@H]5[C@H](O)[C@H]3O)[C@H]3COC(=O)[C@H]23)OCO4)cc(OC)c1O` [etoposide], in [3] (etoposide, any formulation), the “precipitation upon dilution in rSIF (visual)” value is given as “did not precipitate”. Moreover, the oral etoposide bioavailability in series [7] was 92%. The “oral bioavailability of etoposide” value in [8] (20 mg/kg etoposide oral + 20 mg/kg oral zosuquidar) is listed as 34.5%; in [8] (without zosuquidar), 4.0%. Further, the absolute etoposide bioavailability in [8] (wild-type rats, 2018a) is 27 ± 5%. Further, the “increase of etoposide AUC0-6h” value in [5] (setting [19]) is on record as 34%. Besides, the “increase of etoposide t½” value in [5] (setting [19]) is recorded as 37%. In addition, in [5] (group D: etoposide 20 mg/kg oral, no zosuquidar, mean ± SEM, n = 6), the “Etoposide Bioavailability” value is listed as 5%. For the same compound, the AUC(0-t) in series [5] (male, Sprague Dawley, rat, plasma, po, 20 mg/kg, Etoposide AUC0-6h, group I: etoposide 20 mg/kg oral + zosuquidar 20 mg/kg oral, mean ± SEM, n = 6) was determined as 3530 ± 460 ng·h/mL. For the same compound, the bioavailability amounted to 5.5 ± 0.9% in [5] (male, Sprague Dawley, rat, plasma, po, 20 mg/kg, group D: etoposide 20 mg/kg oral, no zosuquidar, mean ± SEM, n = 6) and 20.5 ± 2.7% in series [5] (male, Sprague Dawley, rat, plasma, po, 20 mg/kg, group I: etoposide 20 mg/kg oral + zosuquidar 20 mg/kg oral, mean ± SEM, n = 6). Further, the solubility at 24 h in series [9] (absolute ethanol, organic solvent or mixture) turned out to be 891 ± 8 µg/mL (≈ 1510 µM); in series [9] (ethanol-water mixture), 9230 ± 420 µg/mL (≈ 15700 µM); in series [9] (water), 92.4 ± 3.4 µg/mL (≈ 157 µM). For the same compound, the recovery at 120 min, 50 µM in series [10] fell in the range of 95 to 117%. Moreover, the “decrease of etoposide B-A permeability” value with Caco-2 cell monolayers [11] was determined as 5 fold. For the same compound, the “increase of etoposide A-B permeability” value with Caco-2 cell monolayers [11] is listed as 4 fold.

As for `COc1cc2c(cc1OC)CN(CCc1ccc(-n3nnc(-c4cc(OC)c(OC)cc4NC(=O)c4cc(=O)c5ccccc5o4)n3)cc1)CC2` [encequidar], in [12], the “encequidar Cmax” value is 7.1 ng/mL and the encequidar bioavailability is recorded as 6.25%.
